Results: US9714249B2 (Novartis AG, priority 2013, dated 2017)

How the values were obtained:
BRD4-NUT-fusion = BRD4-NUT-fusion (Homo sapiens (Human), UniProt O60885+Q86Y26); experiment: Nut-foci formation assay (HCS) in HCC2494 NUT midline carcinoma cells; format: cell-based; details: 24 hours, nuclear BRD4-NUT foci, immunofluorescence
Description: Compound-mediated inhibition of BRD4 activity was monitored by quantification of the number and intensity of nuclear BRD4-NUT foci using automated immunofluorescence microscopy. Briefly, 5000 cells in 20 μl fresh medium were seeded into Poly-D-Lysine-precoated 384-well plates and incubated overnight at 37° C. and 5% CO2, followed by addition of 5 μl medium containing compound dilutions at 5-fold their final intended concentration. Dose-response effects were assessed by 3-fold serial dilutions of the test compound, starting at 10 μM. […] Assay plates were imaged using the appropriate filter sets on the Cellomics VTi automated fluorescence microscopy platform (ThermoFisher Scientific) and the population average of the number of NUT-foci per nucleus is quantified using the Cellomics Spot Detection BioApplication image analysis algorithm (ThermoFisher Scientific). The effect of a particular test compound concentration on NUT-foci number and intensity is expressed as percentage of the value obtained for cells treated with vehicle only (DMSO, 0.1% final concentration), which was set as 100.

BRD3 (His-Brd3(20-477)) = BRD3 (His-Brd3(20-477)) (Homo sapiens (Human), UniProt Q15059); experiment: TR-FRET in-vitro binding assay for BRD3; details: acetyl-histone H4 peptide
BRD3 (His-Brd3(20-477)), sequence (Q15059 20-477, species assumed): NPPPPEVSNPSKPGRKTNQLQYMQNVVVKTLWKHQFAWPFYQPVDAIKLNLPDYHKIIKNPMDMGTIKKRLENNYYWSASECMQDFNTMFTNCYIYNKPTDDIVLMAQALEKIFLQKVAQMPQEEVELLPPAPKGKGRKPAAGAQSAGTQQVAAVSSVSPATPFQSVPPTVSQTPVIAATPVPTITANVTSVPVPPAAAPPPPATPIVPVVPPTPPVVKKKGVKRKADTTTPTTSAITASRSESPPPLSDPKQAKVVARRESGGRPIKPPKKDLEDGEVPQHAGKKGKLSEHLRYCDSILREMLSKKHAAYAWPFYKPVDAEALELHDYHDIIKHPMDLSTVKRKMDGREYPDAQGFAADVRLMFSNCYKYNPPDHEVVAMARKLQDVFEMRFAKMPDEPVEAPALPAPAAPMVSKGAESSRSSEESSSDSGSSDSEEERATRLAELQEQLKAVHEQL
Description: All assays were performed in 384 well microtiter plates. Each assay plate contained 8-point serial dilutions for 40 test compounds, plus 16 high- and 16 low controls. Liquid handling and incubation steps were done on an Innovadyne Nanodrop Express equipped with a robotic arm (Thermo CatX, Perkin Elmer/Caliper Twister II) and an incubator (Liconic STX40, Thermo Cytomat 2C450). The assay plates were prepared by addition of 50 nl per well of compound solution in 90% DMSO HummingBird nanodispenser (Zinsser Analytic). The assay was started by stepwise addition of 4.5 μl per well of bromo domain protein (50 mM HEPES, pH 7.5, 0.005% Tween20, 0.1% BSA, 50 mM NaCl, 45 nM His-Brd2(60-472) or 45 nM His-Brd3(20-477) or 45 nM His-Brd4(44-477) all proteins produced in-house) and 4.5 μl per well of peptide solution (50 mM HEPES, pH 7.5, 0.005% Tween20, 0.1% BSA, 50 mM NaCl, 60 nM acetyl-histone H4 (AcK 5, 8, 12, 16) (Biosyntan GmbH)). Reactions were incubated at 30° C. for 35 minutes. Subsequently 4.5 μl per well detection mix (50 mM HEPES, pH 7.5, 0.005% Tween20, 0.1% BSA, 50 mM NaCl, 3 nM Eu-labeled anti-His6 antibody, 21 nM streptavidin-allophycocyanin) were added. After 35 minutes incubation at 30° C., plates were measured in a Perkin Elmer EnVision multilabel reader. Concentrations causing 50% inhibition (1050) values were determined from percent inhibition values at different compound concentrations by non-linear regression analysis.
Test compounds were dissolved in DMSO (10 mM) and transferred into 1.4 mL flat bottom or V-shaped Matrix tubes carrying a unique 2D matrix. The stock solutions were stored at […] if not used immediately. For the test procedure the vials were defrosted and identified by a scanner whereby a working sheet was generated that guided the subsequent working steps. Compound dilutions were made in 96 well plates. This format enabled the assay of maximally 40 individual test compounds at 8 concentrations (single points) including 4 reference compounds, if desired (known BET inhibitors from the prior art, for this and other assays of the type disclosed herein). The dilution protocol included the production of “pre-dilution plates”, “master plates” and “assay plates”.
Pre-dilution plates: 96 polypropylene well plates were used as pre-dilution plates. A total of 4 pre-dilution plates were prepared including 10 test compounds each on the plate positions A1-A10, one standard compound at A11 and one DMSO control at A12. All dilution steps were done on a HamiltonSTAR robot. Master plates: 30 μL of individual compound dilutions including standard compound and controls of the 4 “pre-dilution plates” were transferred into a 384 “master plate” including the following concentrations 10000, 3003, 1000, 300, 100, 30, 10 and 3 μM, respectively in 90% of DMSO. Assay plates: Identical “assay plates” were then prepared by pipetting 50 nL each of compound dilutions of the “master plates” into 384-well “assay plates” by means of a HummingBird 384-channel dispenser. These plates were used directly for the assay which was performed in a total volume of 13.55 μL. This led to a final compound concentration of 37, 11, 3.7, 1.1, 0.37, 0.11, 0.037 and 0.011 μM and a final DMSO concentration of 0.37% in the assay. Cell Growth Inhibition Assay

SMILES	IC50 (BRD4-NUT-fusion) [nM]	IC50 (BRD3 (His-Brd3(20-477))) [nM]
Cc1[nH]nc2c1C(=O)N(c1cc(Cl)c(=O)n(C)c1)C2c1ccc(Cl)cc1 (stereo not shown) [Example 6, 5-(5-chloro-1-methyl-6-oxo-1,6-dihydropyridin-3-yl)-6-(4-chlorophenyl)-3-methyl-5,6-dihydropyrrolo[3,4-c]pyrazol-4(2H)-one]	108	80
COc1ncc(-n2nc3c(c2C)C(=O)N(c2cc(Cl)c(=O)n(C)c2)C3c2ccc(Cl)cc2)cn1 (stereo not shown) [Example 8b, 5-(5-chloro-1-methyl-6-oxo-1,6-dihydropyridin-3-yl)-6-(4-chlorophenyl)-2-(2-methoxypyrimidin-5-yl)-3-methyl-5,6-dihydropyrrolo[3,4-c]pyrazol-4(2H)-one]	58	140
Cc1nn(C)c2c1C(=O)N(c1cc(C)c(=O)n(C)c1)C2c1ccc(Cl)cc1 (stereo not shown) [Example 10, 6-(4-chlorophenyl)-5-(1,5-dimethyl-6-oxo-1,6-dihydropyridin-3-yl)-1,3-dimethyl-5,6-dihydropyrrolo[3,4-c]pyrazol-4(1H)-one]	108	62
Cc1nn(C2CC2)c2c1C(=O)N(c1cc(C)c(=O)n(C)c1)C2c1ccc(Cl)cc1 (stereo not shown) [Example 11, 6-(4-chlorophenyl)-1-cyclopropyl-5-(1,5-dimethyl-6-oxo-1,6-dihydropyridin-3-yl)-3-methyl-5,6-dihydropyrrolo[3,4-c]pyrazol-4(1H)-one]	41.7	34
COc1ncccc1-n1nc2c(c1C)C(=O)N(c1cc(Cl)c(=O)n(C)c1)C2c1ccc(Cl)cc1 (stereo not shown) [Example 7b, 5-(5-chloro-1-methyl-6-oxo-1,6-dihydropyridin-3-yl)-6-(4-chlorophenyl)-2-(2-methoxypyridin-3-yl)-3-methyl-5,6-dihydropyrrolo[3,4-c]pyrazol-4(2H)-one]	74.4	24

Next, values leading:

IC50 (BRD4-NUT-fusion) [nM]	IC50 (BRD3 (His-Brd3(20-477))) [nM]	SMILES
57.6	48	COc1ccc(-n2nc(C)c3c2C(c2ccc(Cl)cc2)N(c2cc(C)c(=O)n(C)c2)C3=O)cn1 (stereo not shown) [Example 20b, 6-(4-chlorophenyl)-5-(1,5-dimethyl-6-oxo-1,6-dihydropyridin-3-yl)-1-(6-methoxypyridin-3-yl)-3-methyl-5,6-dihydropyrrolo[3,4-c]pyrazol-4(1H)-one]
60.7	65.5	COc1ncccc1-c1nn(C)c2c1C(=O)N(c1cc(C)c(=O)n(C)c1)C2c1ccc(Cl)cc1 (stereo not shown) [Example 15, 6-(4-chlorophenyl)-5-(1,5-dimethyl-6-oxo-1,6-dihydropyridin-3-yl)-3-(2-methoxypyridin-3-yl)-1-methyl-5,6-dihydropyrrolo[3,4-c]pyrazol-4(1H)-one]
60.6	52	COc1ncccc1-c1nn(C)c2c1C(=O)N(c1cc(C)c(=O)n(C)c1)[C@@H]2c1ccc(Cl)cc1 [Example 16, (R)-6-(4-chlorophenyl)-5-(1,5-dimethyl-6-oxo-1,6-dihydropyridin-3-yl)-3-(2-methoxypyridin-3-yl)-1-methyl-5,6-dihydropyrrolo[3,4-c]pyrazol-4(1H)-one]
